The text below walks through data of patent US8686155B2, “Aurora kinase modulators and method of use” (Amgen Inc., priority 2006, dated 2014).

Read-outs that look alike come from different tables or passages of the source.

Assay [1] relates to phosphorylation of Histone H3 in HeLa cells. Briefly: HeLa cell 1-hour phospho-histone assay. Type of assay: cell-based. The conditions noted are these: Homo sapiens, % of cells pHH3 positive, read-out: inhibitory activity (EC50) in the phospho-histone H3 assay. The protocol: HeLa Cell 1-Hour Phospho-Histone Assay
The purpose of this assay is to test the inhibitory effect of Aurora compounds with respect to phosphorylation of Histone H3 in the cellular context. HeLa cells (9×10^4/well) are plated in black 96-well flat-bottom tissue culture plates and incubated for 40 hours prior to compound addition. Compounds are serially diluted in DMSO, followed by dilution into MEM containing 10 mM HEPES; 10 ul/well of diluted compounds are added to cells (0.5% DMSO final). Cells are incubated for 1 hour at 37° C. in 5% CO2. Cells are then fixed with 3.7% formaldehyde for 10 minutes, washed with wash buffer (1% goat serum and 0.1% Tween 20 in PBS), then permeabilized with 0.5% Triton X in PBS for 15 minutes. After washing with wash buffer, cells are incubated with primary antibody (Upstate #06-507 anti-phospho-histone (Ser 10) antibody (pHH3) for 1 hour at 10 ug/ml. After 2 washes with wash buffer, cells are incubated with secondary antibody (Molecular Probes #A11034 goat anti-rabbit Alexa-488 for 1 hour at 1 ug/ml+Hoechst 33342 nuclear dye at 1 ug/ml (Molecular Probes). Cells are washed 2 times with wash buffer, and buffer replaced with PBS. Plates are scanned on the Cellomics Array Scan (6 fields, ˜2000 cells/well) and % of cells that are pHH3 positive were calculated using the Cellomics algorithm.

Another assay deals with T1, AuroraB (Homo sapiens, UniProt Q96GD4).
T1 construct: 20 μL of AuroraB FL His; His
The experiment in a line: AuroraB Homogeneous Time Resolved Fluorescent (HTRF) kinase assay. Type of assay: biochemical. The conditions noted are these: read-out: AurB_IC50_IP (Avg). The protocol:
AuroraB-Homogeneous Time Resolved Fluorescent (HTRF) Kinase Assay:
The AuroraB HTRF assay begins with AuroraB in the presence of ATP phosphorylating the biotinylated peptide Histone H3. The reaction incubates for about 90 min. the reaction is quentched by addition of detection reagents, which stop the reaction by diluting out the enzyme and chelating the metals due to the presence of EDTA. After addition, the assay is incubated for about 60 min to allow detection reagents to equilibrate.
The AuroraB HTRF assay comprises 1 μL of compound in 100% DMSO, 20 μL of ATP and biotinylated Histone H3, and 20 μL of AuroraB FL His for a final volume of 41 μL. The final concentration of Histone H3 is 0.1 μM. The final concentration of ATP is 23 μM (Km(app)=23 μM+/−2.6) and the final concentration of AuroraB is 400 pM. Buffer conditions are as follows: 50 mM HEPES pH 7.5, 5 mM NaCl, 0.5 mM MgCl, 0.5 mM MnCl, 2 mM DTT, 0.05% BSA.
The assay is quenched and stopped with 160 μl, of detection reagent. Detection reagents are as follows: Buffer made of 50 mM Tris, pH 7.5, 100 mM NaCl, 3 mM EDTA, 0.05% BSA, 0.1% Tween20. Added to this buffer prior to reading is Steptavidin allophycocyanin (SA-APC) at a final conc in the assay of 0.001 mg/mL, and europilated anti-phosphoHistoneH3 Ab (Eu-anti-His H3) at a final conc of 0.064 nM.
The assay plate is read in either a Discovery or a RubyStar. The eu-anti-HisH3 is excited at 320 nm and emits at 615 nm to excite the SA-APC which in turn emits at 655 nm. The ratio of SA-APC at 655 nm (excited due to close proximity to the Eu-anti-H HisH3 because of phosphorylation of the peptide) to free Eu-anti-HisH3 at 615 nm will give substrate phosphorylation.
(Time-resolved FRET reads energy transfer from a long-lived donor to a nearby acceptor.)

The target in the next assay is T2, AuroraA-TPX2 (Homo sapiens, UniProt O14965).
T2 construct: 20 μL of AuroraA-TPX2 KD GST; GST
T2 sequence (O14965 133-383 limits assumed): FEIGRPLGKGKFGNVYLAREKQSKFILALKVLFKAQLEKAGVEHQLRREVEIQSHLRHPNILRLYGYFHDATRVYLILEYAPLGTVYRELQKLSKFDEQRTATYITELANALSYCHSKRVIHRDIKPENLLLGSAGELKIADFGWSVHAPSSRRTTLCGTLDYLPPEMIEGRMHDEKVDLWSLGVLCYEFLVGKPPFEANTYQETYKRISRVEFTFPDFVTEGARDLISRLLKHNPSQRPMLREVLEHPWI
T2 sequence (Q9ULW0 1-43 partner limits assumed): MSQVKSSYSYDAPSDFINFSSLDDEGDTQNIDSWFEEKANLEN
The experiment in a line: AuroraA-TPX2 Homogeneous Time Resolved Fluorescent (HTRF) kinase assay. Type of assay: biochemical. The settings on record: read-out: AurA/TPX2_IC50_IP (Avg). The protocol:
AuroraA-TPX2-Homogeneous Time Resolved Fluorescent (HTRF) Kinase Assay
The Aurora-A HTRF assay begins with Aurora-A in the presence of ATP phosphorylating the biotinylated peptide PLK. The reaction incubates for about 120 min. Detection reagents are added to quench the reaction. These agents stop the reaction by diluting out the enzyme and chelating the metals due to the presence of EDTA. After addition, the assay is incubated overnight to allow the detection reagents to equilibrate.
The final concentration of PLK is about 1 μM. […] Buffer conditions are as follows: 60 mM HEPES pH 7.5, 25 mM NaCl, 10 mM MgCl, 2 mM DTT, 0.05% BSA.
The assay is quenched and stopped with 160 μL of detection reagent. Detection reagents are as follows: Buffer made of 50 mM Tris, pH 7.5, 100 mM NaCl, 3 mM EDTA, 0.05% BSA, 0.1% Tween20. Added to this buffer prior to reading is Steptavidin allophycocyanin (SA-APC) at a final conc in the assay of 0.0005 mg/mL, and europilated anti-phosphoPLK Ab (Eu-anti-PLK) at a final conc of 0.02 nM.
The assay plate is read in either a Discovery or a RubyStar. The eu-anti-PLK is excited at 320 nm and emits at 615 nm to excite the SA-APC which in turn emits at 655 nm.

T1 sequence (Q96GD4 whole entry): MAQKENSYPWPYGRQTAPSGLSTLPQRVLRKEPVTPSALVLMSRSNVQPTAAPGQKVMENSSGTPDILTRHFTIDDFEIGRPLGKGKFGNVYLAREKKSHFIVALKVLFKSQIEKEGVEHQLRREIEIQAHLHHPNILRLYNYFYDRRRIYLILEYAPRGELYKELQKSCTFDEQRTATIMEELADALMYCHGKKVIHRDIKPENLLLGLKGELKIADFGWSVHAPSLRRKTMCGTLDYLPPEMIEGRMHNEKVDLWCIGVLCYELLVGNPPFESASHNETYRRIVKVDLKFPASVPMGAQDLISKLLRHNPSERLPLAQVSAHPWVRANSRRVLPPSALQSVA

Broadly, the EC50 is the concentration that produces a half-maximal response. In the case of `CNc1nccc(-c2cccnc2Oc2ccc(Nc3nnc(-c4ccccc4)c4c3C3CCC4CC3)cc2)n1` [Example 107, N-(4-((3-(2-(methylamino)-4-pyrimidinyl)-2-pyridinyl)oxy)phenyl)-6-phenyl-4,5-diazatricyclo [6.2.2.0~2,7~]dodeca-2,4,6-trien-3-amine], the EC50 in assay [1] (unit inferred) is under 1000 nM.

In the case of `COc1ccccc1-c1nnc(Nc2ccc(Oc3ncccc3-c3ccnc(N)c3)cc2)c2ccccc12` [compound 442], the IC50 at AuroraB (numeric values, unit inferred) was determined as 33 nM; at AuroraA-TPX2 (numeric values, unit inferred), 375 nM.

On to `COc1cccc(-c2cc(C)c(Nc3ccc(Oc4ncccc4-c4ccnc(N)n4)cc3)nn2)c1` [compound 443], for which the IC50 on AuroraB (class symbols) and at AuroraA-TPX2 (class symbols) was at most 100 nM throughout.

As for `COc1ccccc1-c1nnc(Nc2ccc(Oc3ncccc3-c3ccnc(N)n3)nc2)c2ccccc12` [compound 440], the IC50 at AuroraB (class symbols) and at AuroraA-TPX2 (class symbols) was at most 100 nM throughout.

For `Cc1csc(-c2cc(C)c(Nc3ccc(Oc4ncccc4-c4ccncc4)cc3)nn2)c1` [compound 428], the IC50 on AuroraB (class symbols) and at AuroraA-TPX2 (class symbols) was at most 100 nM each time.

As for `CCc1cc(-c2ccccc2)nnc1Nc1ccc(Oc2ncccc2-c2ccnc(N)c2)cc1` [compound 420], the IC50 came out at 7.1 nM at AuroraB (numeric values, unit inferred) and 56.8 nM on AuroraA-TPX2 (numeric values, unit inferred).

With `CNc1nccc(-c2cccnc2Oc2ccc(Nc3nnc(-c4cc(C)cs4)c4c3CCC4)cc2)n1` [Example 122, N-(4-((3-(2-(methylamino)-4-pyrimidinyl)-2-pyridinyl)oxy)phenyl)-4-(4-methyl-2-thienyl)-6,7-dihydro-5H-cyclopenta[d] pyridazin-1-amine], the values for the EC50 in assay [1] and in assay [1] (unit inferred) were under 10000 nM and under 1000 nM, respectively.

`Cc1cccc(-c2nnc(Nc3ccc(Oc4ncccc4-c4ccnc(N)n4)cc3)c3ccccc23)n1` [compound 271]: the IC50 was found to be 1 nM on AuroraB (numeric values) and 24.3 nM on AuroraA-TPX2 (numeric values).

In the case of `CCc1cc(-c2ccccc2)nnc1Nc1ccc(Oc2ncccc2-c2ccnc(N)n2)nc1` [compound 439], the IC50 at AuroraB (class symbols) and on AuroraA-TPX2 (class symbols) was at most 100 nM throughout.

`COc1cccc(-c2ccncc2)c1Oc1ccc(Nc2nnc(-c3ccccc3)c3ccccc23)cc1` [compound 448]: the IC50 amounted to 9.6 nM at AuroraB (numeric values, unit inferred) and 110 nM on AuroraA-TPX2 (numeric values, unit inferred).

For the compound `O=C(O)CCCNc1nccc(-c2cccnc2Oc2ccc(Nc3nnc(-c4ccccc4)c4ccccc34)cc2)n1` [compound 427], the IC50 on AuroraB (class symbols) and at AuroraA-TPX2 (class symbols) was at most 100 nM each time.

With `CNc1nccc(-c2cccnc2Oc2ccc(Nc3nnc(-c4ccccc4)c4c3CCCC4)cc2)n1` [Example 123, N-(4-((3-(2-(methylamino)-4-pyrimidinyl)-2-pyridinyl)oxy)phenyl)-4-phenyl-5,6,7,8-tetrahydro-1-phthalazinamine], the EC50 in assay [1] was under 10000 nM; in assay [1] (unit inferred), under 1000 nM.

As to `CCc1cc(-c2ccccc2)nnc1Nc1ccc(Oc2ncccc2-c2ccnc(N)c2)nc1` [compound 444], the figures for the IC50 at AuroraB (class symbols) and on AuroraA-TPX2 (class symbols) were at most 100 nM and 100 to 500 nM, respectively.

Consider `Cc1cc(-c2ccccc2)nnc1Nc1ccc(Oc2ncccc2-c2ccnc(NCCCO)n2)cc1` [compound 429], for which the IC50 on AuroraB (class symbols) and on AuroraA-TPX2 (class symbols) was at most 100 nM each time.

Turning to `COc1cccc(-c2nnc(Nc3ccc(Oc4ncccc4-c4ccnc(N)n4)cc3)c3ccccc23)c1` [compound 438], the IC50 on AuroraB (class symbols) and on AuroraA-TPX2 (class symbols) was at most 100 nM throughout.
